Laboratory results as given in ChEMBL document CHEMBL4145565, “Prolyl Hydroxylase Inhibitors: A Breakthrough in the Therapy of Anemia Associated with Chronic Diseases” (J Med Chem, 2018).

Experiments:
[1] = target: T1, Egl nine homolog 1 (Homo sapiens, UniProt Q9GZT9); test: Inhibition of FLAG- tagged full length HIF-PHD2 (unknown origin) expressed in baculovirus-infected Sf9 cells using biotin labelled DLDLEMLAPYIPMDDDFQL as substrate preincubated for 30 mins followed by substrate addition measured after 2 hrs by LANCE assay
[2] = Inhibition of PHD (unknown origin); parameters: species or system Homo sapiens
[3] = Inhibition of PHD in rat H9C2 cells after 24 hrs by ELISA; format: cell-based
[4] = test system: Mus musculus; test: Cardioprotective activity in C57BL/6 mouse assessed as reduction in area of infract at 30 mg/kg measured at 4 hrs post dose relative to control; format: functional; parameters: scale not given: the % may be the effect or the level left
[5] = test system: Mus musculus; test: Cardioprotective activity in C57BL/6 mouse assessed as reduction in area of infract at 10 mg/kg measured at 4 hrs post dose relative to control; format: functional; parameters: scale not given: the % may be the effect or the level left
[6] = test system: Mus musculus; test: Cardioprotective activity in C57BL/6 mouse assessed as reduction in lactate dehydrogenase release to coronary effluent at 30 mg/kg measured at 4 hrs post dose relative to control; format: functional; parameters: scale not given: the % may be the effect or the level left
[7] = test system: Mus musculus; test: Cardioprotective activity in C57BL/6 mouse assessed as reduction in lactate dehydrogenase release to coronary effluent at 10 mg/kg measured at 4 hrs post dose relative to control; format: functional; parameters: scale not given: the % may be the effect or the level left
[8] = test system: Mus musculus; test: Cardioprotective activity in C57BL/6 mouse assessed as induction in VEGF mRNA levels at 60 mg/kg, po measured at 2 hrs post dose by qRT-PCR relative to control; format: functional
[9] = Oral bioavailability in Wistar rat; format: ADME, organism-based; conditions: in vivo
[10] = Oral bioavailability in dog; format: ADME, organism-based, Canis lupus familiaris; conditions: in vivo
[11] = Oral bioavailability in monkey; format: ADME, organism-based, Macaca mulatta; conditions: rhesus monkey, in vivo
[12] = test system: Rattus norvegicus; test: In vivo inhibition of PHD in Wistar rat assessed as increase in packed cell volume at 1.25 mg/kg, po measured after 26 days relative to control; format: functional; parameters: scale not given: the % may be the effect or the level left
[13] = test system: Rattus norvegicus; test: In vivo inhibition of PHD in Wistar rat assessed as increase in packed cell volume at 5 mg/kg, po measured after 26 days relative to control; format: functional; parameters: scale not given: the % may be the effect or the level left
[14] = target: T1, Egl nine homolog 1; test: Inhibition of human PHD2 expressed in 293FT cells using HIF-1 [alpha] as substrate after 20 mins by fluorescence polarization assay
[15] = species: Homo sapiens; test: Inhibition of PHD (unknown origin) assessed as induction of EPO by cell based assay relative to control
[16] = species: Homo sapiens; test: Selectivity ratio of IC50 for PHD3 (unknown origin) to IC50 for PHD2 (unknown origin)
[17] = species: Homo sapiens; test: Antianemic activity in human assessed as increase in hemoglobin level; format: functional
[18] = Half life in human at 1 to 2 mg/kg, po administered as two or three times weekly; format: ADME, organism-based; conditions: in vivo
[19] = test system: Homo sapiens; test: In vivo inhibition of PHD in human assessed as induction of EPO level in serum at 1 mg/kg, po administered as twice weekly measured at 4 to 10 hrs post dose; format: functional
[20] = species: Homo sapiens; test: Selectivity ratio of IC50 for HIF-PHD2 (unknown origin) to IC50 for HIF-PHD1 (unknown origin)
[21] = target: T1, Egl nine homolog 1; test: Inhibition of HIF-PHD2 (unknown origin) by fluorescence polarization assay
[22] = test system: Homo sapiens; test: In vivo inhibition of PHD in human assessed as induction of EPO level in serum at 900 mg measured after 18 hrs; format: functional
[23] = target: T1, Egl nine homolog 1; test: Inhibition of N-terminal truncated PHD2 (unknown origin) using biotin labelled DLDLEMLAPYIPMDDDFQL as substrate by AlphaScreen assay
[24] = target: T2, Prolyl hydroxylase EGLN3 (Homo sapiens, UniProt Q9H6Z9); test: Inhibition of His tagged MBP-PHD3 (1 to 230 residues) (unknown origin) expressed in Escherichia coli using Cy5-labelled HIF2alpha as substrate preincubated for 3 mins followed by substrate addition nmeasured after 30 mins by LANCE assay
[25] = Inhibition of PHD (unknown origin) by FRET assay; parameters: species or system Homo sapiens
[26] = target: T2, Prolyl hydroxylase EGLN3; test: Inhibition of PHD3 (unknown origin)
[27] = target: Prolyl hydroxylase EGLN2 (Homo sapiens, UniProt Q96KS0); test: Inhibition of PHD1 (unknown origin)
[28] = test system: Mus musculus; test: In vivo inhibition of PHD in B6D2F1 mouse assessed as induction of EPO level at 60 mg/kg measured at 12 hrs post dose relative to control; format: functional
[29] = test system: Homo sapiens; test: In vivo inhibition of PHD in human assessed as induction of EPO level in serum at 10 mg measured after 4 weeks; format: functional
[30] = Inhibition of PHD in human A549 cells by luciferase reporter gene assay; format: cell-based
[31] = species: Homo sapiens; test: Inhibition of PHD in human Hep3B cells assessed as induction of EPO level by cell based assay relative to control

T2 sequence (Q9H6Z9 whole entry, the tested form may be a part): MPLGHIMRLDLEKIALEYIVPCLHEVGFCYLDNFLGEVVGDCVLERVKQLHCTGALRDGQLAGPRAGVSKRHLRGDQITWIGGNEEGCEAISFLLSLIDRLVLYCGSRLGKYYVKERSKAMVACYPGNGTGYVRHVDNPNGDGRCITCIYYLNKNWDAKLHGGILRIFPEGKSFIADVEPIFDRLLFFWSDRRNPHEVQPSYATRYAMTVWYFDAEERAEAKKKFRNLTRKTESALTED
T1 sequence (Q9GZT9 whole entry): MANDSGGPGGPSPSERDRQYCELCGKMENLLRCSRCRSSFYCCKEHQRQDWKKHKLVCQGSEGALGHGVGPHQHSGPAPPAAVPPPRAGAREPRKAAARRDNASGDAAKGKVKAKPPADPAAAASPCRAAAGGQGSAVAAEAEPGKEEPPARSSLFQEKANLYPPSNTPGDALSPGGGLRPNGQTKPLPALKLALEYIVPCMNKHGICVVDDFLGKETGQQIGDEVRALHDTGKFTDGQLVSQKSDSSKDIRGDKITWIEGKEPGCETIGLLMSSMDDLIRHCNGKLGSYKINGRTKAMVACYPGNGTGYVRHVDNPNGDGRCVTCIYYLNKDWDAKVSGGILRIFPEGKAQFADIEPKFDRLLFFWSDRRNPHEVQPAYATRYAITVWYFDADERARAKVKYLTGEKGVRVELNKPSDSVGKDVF
Chain of Prolyl hydroxylase EGLN2 (Q96KS0 whole entry): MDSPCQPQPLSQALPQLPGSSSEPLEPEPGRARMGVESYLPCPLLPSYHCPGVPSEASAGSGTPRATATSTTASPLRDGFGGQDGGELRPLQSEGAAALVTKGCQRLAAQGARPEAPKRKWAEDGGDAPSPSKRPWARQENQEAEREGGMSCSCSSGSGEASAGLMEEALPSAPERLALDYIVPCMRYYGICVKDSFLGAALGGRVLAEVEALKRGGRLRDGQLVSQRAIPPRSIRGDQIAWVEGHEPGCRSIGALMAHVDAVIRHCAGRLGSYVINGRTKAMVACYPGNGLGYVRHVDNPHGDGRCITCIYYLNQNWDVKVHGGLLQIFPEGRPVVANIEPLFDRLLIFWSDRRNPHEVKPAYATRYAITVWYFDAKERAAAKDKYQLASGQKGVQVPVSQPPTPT

Question: Which IC50 [1] does the source give for `COc1ccc(C(NC(=O)c2cnc(-c3cccnn3)nc2O)c2ccc([PH](=O)O)cc2)cc1` (stereo not given) here?
Answer: The IC50 was < 10 nM.

Question: What does the source list for `CCN1CCN(C(=O)c2ccc(-n3ncc(-c4ccc(C#N)cc4C)c3O)nc2)CC1`?
Answer: pIC50 [2]: 8; pEC50 [3]: 6.25; Activity [4]: 59%; Activity [5]: 50%; Activity [6]: 56%; Activity [7]: 51%; fold change (FC) [8]: 2

Question: With `O=c1c(-n2ccnn2)c[nH]n1-c1cc(N2CCOCC2)ncn1` [MOLIDUSTAT] as the molecule, how does the bioavailability [9] read?
Answer: Its bioavailability is 34%.

Question: And the bioavailability [10]?
Answer: The bioavailability was 71%.

Question: And the bioavailability [11]?
Answer: Its bioavailability is 61%.

Question: What about the Activity [12] of the same molecule?
Answer: Its Activity is 3%.

Question: And the Activity [13]?
Answer: The Activity was 17%.

Question: Which IC50 [14] does the source give for `O=C(NCc1ccc2c(c1)CCO2)c1ccc(-c2ncn[nH]2)nc1` here?
Answer: The IC50 was 61 nM.

Question: For `O=C(O)c1cnn(-c2nc(O)c3c(cnn3C(c3ccc(Cl)cc3)c3ccc(Cl)cc3)n2)c1`, which fold change (FC) [15] is on record?
Answer: The fold change (FC) was 40.

Question: And the Ratio IC50 [16]?
Answer: The Ratio IC50 was 130.

Question: For `Cc1nc(C(=O)NCC(=O)O)c(O)c2ccc(Oc3ccccc3)cc12` [ROXADUSTAT], which Activity [17] is on record?
Answer: Its Activity is “>=1 g/dl”.

Question: What about the half-life [18] of the same molecule?
Answer: The half-life was 720 min.

Question: What about the Activity [19] of the same molecule?
Answer: Its Activity is 115 mU/ml.

Question: With `N#Cc1nc(C(=O)NCCC(=O)O)c(O)c2ccc(Oc3ccccc3)cc12` as the molecule, how does the Ratio IC50 [20] read?
Answer: Its Ratio IC50 is 5.

Question: Which IC50 [1] does the source give for `O=C(Cc1ccc(-c2ccccc2)cc1)Nc1cnc(-n2cccn2)nc1O` here?
Answer: The IC50 was 0.7 nM.

Question: Which Ratio IC50 [20] does the source give for `COc1ccc(Oc2ccc3c(O)c(C(=O)NC(C)(C)CC(=O)O)nc(C#N)c3c2)cc1` here?
Answer: Its Ratio IC50 is 40.

Question: Which IC50 [21] does the source give for `O=C(O)CNC(=O)c1ncc(C#CCOc2ccc(Cl)cc2)cc1O` [DDO-3055] here?
Answer: The IC50 was 13.7 µM.

Question: For `O=C(O)CNC(=O)c1ncc(-c2cccc(Cl)c2)cc1O`, which Activity [22] is on record?
Answer: Its Activity is 32.4 mU/ml.

Question: For `O=C(O)CCC(=O)NNC(=O)c1cc2ccccc2cn1`, which IC50 [23] is on record?
Answer: Its IC50 is 18.4 µM.

Question: With `CC(CC(=O)O)NC(=O)c1nc(C#N)c2cc(Oc3ccccc3)ccc2c1O` (stereo not given) as the molecule, how does the Ratio IC50 [20] read?
Answer: Its Ratio IC50 is 40.

Question: For `COc1ccc(-n2c(=O)[nH]c3cc(C(=O)NCc4ccc(Cl)cc4)sc3c2=O)nc1OC`, which IC50 [24] is on record?
Answer: The IC50 was 1 to 100 nM.

Question: For `CC(C)(C)NC(=O)c1ccc(-n2[nH]cc(-c3cccnc3)c2=O)nc1`, which IC50 [25] is on record?
Answer: The IC50 was 910 nM.

Question: With `O=C(O)CNC(=O)c1c(O)n(C2CCCCC2)c(=O)n(C2CCCCC2)c1=O` as the molecule, how does the IC50 [26] read?
Answer: The IC50 was 5.5 nM.

Question: And the IC50 [27]?
Answer: Its IC50 is 3.5 nM.

Question: And the “fold change (FC)” value [28]?
Answer: Its value is 11.2.

Question: And the Activity [29]?
Answer: Its Activity is 500 mIU/ml.

Question: Which results are given for `O=c1c(-c2cccnc2)c[nH]n1-c1ccccn1`?
Answer: IC50 [25]: 430 nM; EC50 [30]: 4.9 µM

Question: Which fold change (FC) [31] does the source give for `CC(=O)Nc1c[nH]n(-c2ccc(C(=O)NCc3cccc(-c4ccccc4)c3)cc2)c1=O` here?
Answer: The fold change (FC) was 40.

Question: For `O=C(O)CCNC(=O)c1ncc(C(=O)NC(c2ccccc2)c2ccccc2)c(O)n1`, which IC50 [1] is on record?
Answer: The IC50 was < 20 nM.

Question: Which IC50 [24] does the source give for `COc1ccc(-n2c(=S)[nH]c3cc(C(=O)NCc4ccc(Cl)cc4)sc3c2=O)nc1OC` here?
Answer: The IC50 was 1 to 100 nM.

Question: For `COCC1(CNC(=O)c2ccc(-n3ncc(-c4ccnc(OC)c4)c3O)nc2)CCCC1`, which pIC50 [2] is on record?
Answer: The pIC50 was 8.4.

Question: And the pEC50 [3]?
Answer: The pEC50 was 6.45.

Question: Which IC50 [21] does the source give for `O=C(O)CNC(=O)c1ncc(-c2cccc(F)c2)cc1O` here?
Answer: Its IC50 is 13.7 µM.
